# Laboratory results: patent US9676773B2, “Azaindole derivative” (TAIHO PHARMACEUTICAL CO., LTD., priority 2014, dated 2017)
# Columns and labels:
# Format in all cases: biochemical
# [1] = target: T1, purified recombinant human JAK1 protein (Homo sapiens, UniProt P23458); assay: Measurement of JAK1 kinase-inhibitory activity; settings: substrate peptide 1 μM, ATP 75 M (so in the source), 25° C., 120 minutes
# T1 construct: purchased Carna Biosciences, Inc
# Description: 1) Measurement of JAK1 Kinase-Inhibitory Activity
# The activity of the compound of the present invention to inhibit the activity of JAK1 kinase was measured.
# (§1) Among materials for the measurement of this inhibitory activity, a substrate peptide and a kinase protein were acquired as follows. As such a substrate peptide, a substrate peptide for QSS Assist™ JAK1-MSA assay kit (Carna Biosciences, Inc.) was purchased. As such a kinase protein, a purified recombinant human JAK1 protein (Carna Biosciences, Inc.) was purchased.
# The method for measuring the inhibitory activity is as follows. First, the compounds of the present invention were each dissolved in dimethyl sulfoxide (DMSO), and a serial dilution was then prepared by the use of DMSO. Subsequently, a serial dilution solution of the compound (the final concentration of DMSO upon a kinase reaction: 5.0%) or DMSO (final concentration: 5.0%) was mixed with a solution containing the substrate peptide (final concentration: 1 μM), magnesium chloride (final concentration: 5 mM) and ATP (final concentration: 75 µM) in a buffer for kinase reaction (20 mM HEPES (pH 7.5), 2 mM dithiothreitol and 0.01% Triton X-100). Thereafter, a JAK1 protein was further added to the mixed solution, and the obtained mixture was then incubated at 25° C. for 120 minutes to carry out a kinase reaction. To the reaction solution, EDTA was added to a final concentration of 30 mM, so as to terminate the reaction. Finally, with LabChip EZ Reader II (Perkin Elmer Corp.), an unphosphorylated substrate peptide (S) and a phosphorylated peptide (P) were subjected to microchannel capillary electrophoresis, so that the two peptides were separated from each other and were then detected. The amount of a phosphorylation reaction was obtained based on the heights of the peaks of S and P, and the concentration of the compound capable of inhibiting 50% of the phosphorylation reaction was defined as an IC50 value (nM).
# [2] = target: T2, purified recombinant human JAK2 protein (Homo sapiens, UniProt O60674); assay: Measurement of JAK2 kinase-inhibitory activity; settings: FL-Peptide 22 1 μM, ATP 10 μM, 25° C., 80 minutes
# T2 construct: purchased Carna Biosciences, Inc
# Description: 2) Measurement of JAK2 Kinase-Inhibitory Activity
# The activity of the compound of the present invention to inhibit the activity of JAK2 kinase was measured.
# as §1, with “FL-Peptide 22 (Perkin Elmer Corp.)” for “a substrate peptide for QSS Assist™ JAK1-MSA assay kit (Carna Biosciences, Inc.)”, “JAK2” for “JAK1”
# (§2) The method for measuring the inhibitory activity is as follows. First, a serial dilution of the compound of the present invention was prepared by the same method as that described in the above section regarding JAK1. This serial dilution solution (the final concentration of DMSO upon a kinase reaction: 5.0%) or DMSO (final concentration: 5.0%) was mixed with a solution containing the substrate peptide (final concentration: 1 μM), magnesium chloride (final concentration: 10 mM) and ATP (final concentration: 10 μM) in a buffer for kinase reaction (15 mM Tris (pH 7.5), 2 mM dithiothreitol and 0.01% Tween 20). Thereafter, a JAK2 protein was further added to the mixed solution, and the obtained mixture was then incubated at 25° C. for 80 minutes to carry out a kinase reaction. To the reaction solution, EDTA was added to a final concentration of 30 mM, so as to terminate the reaction. After termination of the reaction, the measurement and the data analysis were carried out by the same methods as those described in the above section regarding JAK1.
# [3] = target: T3, purified recombinant human JAK3 protein (Homo sapiens, UniProt P52333); assay: Measurement of JAK3 kinase-inhibitory activity; settings: substrate peptide 1 μM, ATP 5 μM, 25° C., 80 minutes
# T3 construct: purchased Carna Biosciences, Inc
# T3 sequence (P52333 1-1124): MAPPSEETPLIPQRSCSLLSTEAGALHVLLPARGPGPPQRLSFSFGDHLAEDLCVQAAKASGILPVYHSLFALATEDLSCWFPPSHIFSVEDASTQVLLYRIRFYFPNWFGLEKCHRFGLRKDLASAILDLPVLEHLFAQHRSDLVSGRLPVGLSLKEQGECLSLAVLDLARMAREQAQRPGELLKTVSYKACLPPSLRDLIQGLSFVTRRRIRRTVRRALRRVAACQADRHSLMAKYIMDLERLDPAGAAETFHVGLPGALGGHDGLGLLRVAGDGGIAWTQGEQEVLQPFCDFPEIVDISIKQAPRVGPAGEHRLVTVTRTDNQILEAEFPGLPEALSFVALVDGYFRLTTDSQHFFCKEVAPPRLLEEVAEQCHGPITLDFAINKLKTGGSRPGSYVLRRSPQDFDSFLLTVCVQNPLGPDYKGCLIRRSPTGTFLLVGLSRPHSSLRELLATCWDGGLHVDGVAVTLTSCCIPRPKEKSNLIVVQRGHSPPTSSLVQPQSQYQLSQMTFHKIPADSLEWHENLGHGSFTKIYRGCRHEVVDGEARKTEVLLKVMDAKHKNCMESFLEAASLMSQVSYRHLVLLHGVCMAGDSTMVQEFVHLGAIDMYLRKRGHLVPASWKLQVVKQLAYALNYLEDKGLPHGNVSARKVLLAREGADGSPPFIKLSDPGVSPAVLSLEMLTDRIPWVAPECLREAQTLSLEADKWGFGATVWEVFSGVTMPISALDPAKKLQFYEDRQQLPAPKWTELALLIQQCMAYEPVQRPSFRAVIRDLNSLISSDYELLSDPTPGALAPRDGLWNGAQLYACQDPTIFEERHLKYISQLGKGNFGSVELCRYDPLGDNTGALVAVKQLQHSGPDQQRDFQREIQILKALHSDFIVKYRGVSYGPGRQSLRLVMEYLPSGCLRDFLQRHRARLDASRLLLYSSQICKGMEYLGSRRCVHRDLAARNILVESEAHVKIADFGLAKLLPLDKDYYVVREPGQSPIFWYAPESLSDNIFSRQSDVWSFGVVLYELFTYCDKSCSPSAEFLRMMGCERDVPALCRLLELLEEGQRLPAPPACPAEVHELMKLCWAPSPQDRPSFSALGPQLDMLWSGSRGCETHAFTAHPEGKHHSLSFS
# Description: 3) Measurement of JAK3 Kinase-Inhibitory Activity
# The activity of the compound of the present invention to inhibit the activity of JAK3 kinase was measured.
# as §1, with “JAK3-MSA” for “JAK1-MSA”, “JAK3” for “JAK1”
# as §2, with “5” for “10”, “(20” for “(15”, “HEPES” for “Tris”, “Triton X-100).” for “Tween 20).”, “JAK3” for “JAK2”
# T2 sequence (O60674 whole entry): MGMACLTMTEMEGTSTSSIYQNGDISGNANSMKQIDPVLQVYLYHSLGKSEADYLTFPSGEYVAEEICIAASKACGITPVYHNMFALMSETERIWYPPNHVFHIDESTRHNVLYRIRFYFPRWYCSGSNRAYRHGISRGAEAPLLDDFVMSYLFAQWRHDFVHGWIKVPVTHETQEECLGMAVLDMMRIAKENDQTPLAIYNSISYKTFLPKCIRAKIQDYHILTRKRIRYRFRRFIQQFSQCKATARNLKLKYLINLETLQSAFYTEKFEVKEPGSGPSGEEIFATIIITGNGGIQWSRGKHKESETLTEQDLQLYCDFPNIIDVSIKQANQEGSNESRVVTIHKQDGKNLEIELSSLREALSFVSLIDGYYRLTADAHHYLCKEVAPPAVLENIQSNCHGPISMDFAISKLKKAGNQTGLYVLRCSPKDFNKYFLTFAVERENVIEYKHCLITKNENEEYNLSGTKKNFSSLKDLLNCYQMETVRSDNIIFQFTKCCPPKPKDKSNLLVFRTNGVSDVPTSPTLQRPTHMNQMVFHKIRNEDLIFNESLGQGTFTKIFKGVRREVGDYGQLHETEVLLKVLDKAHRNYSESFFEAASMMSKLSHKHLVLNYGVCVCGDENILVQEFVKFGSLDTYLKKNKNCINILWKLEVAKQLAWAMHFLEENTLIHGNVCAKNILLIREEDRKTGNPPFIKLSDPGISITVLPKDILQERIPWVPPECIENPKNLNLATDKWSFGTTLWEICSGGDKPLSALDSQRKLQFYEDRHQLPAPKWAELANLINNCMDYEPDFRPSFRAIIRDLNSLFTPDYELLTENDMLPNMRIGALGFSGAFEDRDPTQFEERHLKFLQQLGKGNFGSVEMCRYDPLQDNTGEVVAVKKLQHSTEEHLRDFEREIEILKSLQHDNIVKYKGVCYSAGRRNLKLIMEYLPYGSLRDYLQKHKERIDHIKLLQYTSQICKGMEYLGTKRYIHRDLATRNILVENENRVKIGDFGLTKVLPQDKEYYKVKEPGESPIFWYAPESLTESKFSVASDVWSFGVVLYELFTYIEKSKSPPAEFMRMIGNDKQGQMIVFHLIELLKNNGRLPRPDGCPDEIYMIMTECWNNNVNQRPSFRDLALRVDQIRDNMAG
# T1 sequence (P23458 whole entry): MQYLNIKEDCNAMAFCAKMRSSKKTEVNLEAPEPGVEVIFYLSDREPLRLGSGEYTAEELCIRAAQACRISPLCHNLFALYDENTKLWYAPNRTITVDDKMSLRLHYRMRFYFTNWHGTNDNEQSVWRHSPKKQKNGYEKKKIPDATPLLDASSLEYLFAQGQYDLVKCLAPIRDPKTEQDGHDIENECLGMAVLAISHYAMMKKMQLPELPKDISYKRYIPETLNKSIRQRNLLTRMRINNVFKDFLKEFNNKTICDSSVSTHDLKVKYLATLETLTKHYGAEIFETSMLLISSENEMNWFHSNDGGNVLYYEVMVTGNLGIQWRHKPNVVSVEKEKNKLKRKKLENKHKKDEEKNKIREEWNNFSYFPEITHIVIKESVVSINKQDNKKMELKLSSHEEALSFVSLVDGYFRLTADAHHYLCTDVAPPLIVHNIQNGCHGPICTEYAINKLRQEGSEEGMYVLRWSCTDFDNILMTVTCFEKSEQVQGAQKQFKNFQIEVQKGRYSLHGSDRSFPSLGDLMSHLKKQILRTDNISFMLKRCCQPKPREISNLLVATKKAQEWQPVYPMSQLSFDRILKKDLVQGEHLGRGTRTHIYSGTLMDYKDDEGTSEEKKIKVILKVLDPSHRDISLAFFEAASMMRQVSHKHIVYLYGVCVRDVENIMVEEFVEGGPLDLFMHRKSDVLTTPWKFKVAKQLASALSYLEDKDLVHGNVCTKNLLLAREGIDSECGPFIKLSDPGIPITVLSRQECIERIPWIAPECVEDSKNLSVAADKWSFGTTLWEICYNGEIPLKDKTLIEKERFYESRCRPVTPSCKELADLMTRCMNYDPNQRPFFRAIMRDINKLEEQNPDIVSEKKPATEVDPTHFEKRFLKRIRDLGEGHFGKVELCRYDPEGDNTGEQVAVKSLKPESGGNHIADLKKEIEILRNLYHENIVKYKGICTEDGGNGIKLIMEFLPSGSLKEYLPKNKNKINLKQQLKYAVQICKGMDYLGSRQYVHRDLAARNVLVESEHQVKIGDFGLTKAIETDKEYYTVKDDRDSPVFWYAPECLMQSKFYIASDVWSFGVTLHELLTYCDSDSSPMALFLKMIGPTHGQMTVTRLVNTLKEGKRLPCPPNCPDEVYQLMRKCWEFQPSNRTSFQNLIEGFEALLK
Compound,IC50 [1] [µM],IC50 [2] [nM],IC50 [3] [nM]
"C=CC(=O)NC1CCC=C(c2ccnc3[nH]cc(-c4ccncc4)c23)C1 (stereo not drawn) [Compound 2, N-(3-(3-(Pyridin-4-yl)-1H-pyrrolo[2,3-b]pyridin-4-yl)cyclohex-3-en-1-yl)acrylamide]",> 10,3100,0.38
"C=CC(=O)NC1CCC=C(c2ccnc3[nH]cc(-c4cccnc4)c23)C1 (stereo not drawn) [Compound 4, N-(3-(3-(Pyridin-3-yl)-1H-pyrrolo[2,3-b]pyridin-4-yl)cyclohex-3-en-1-yl)acrylamide]",7,2600,0.53
"C=CC(=O)NC1CCC=C(c2ccnc3[nH]cc(-c4ccc(C=O)o4)c23)C1 (stereo not drawn) [Compound 9, N-(3-(3-(5-Formylfuran-2-yl)-1H-pyrrolo[2,3-b]pyridin-4-yl)cyclohex-3-en-1-yl)acrylamide]",2.4,430,< 0.3
"C=CC(=O)NC1CCC=C(c2ccnc3[nH]cc(-c4cncc(CO)c4)c23)C1 (stereo not drawn) [Compound 11, N-(3-(3-(5-(Hydroxymethyl)pyridin-3-yl)-1H-pyrrolo[2,3-b]pyridin-4-yl)cyclohex-3-en-1-yl)acrylamide]",9.5,1900,0.49
"C=CC(=O)NC1CCC=C(c2ccnc3[nH]cc(-c4cncs4)c23)C1 (stereo not drawn) [Compound 13, N-(3-(3-(Thiazol-5-yl)-1H-pyrrolo[2,3-b]pyridin-4-yl)cyclohex-3-en-1-yl)acrylamide]",5.2,2000,0.34
"C=CC(=O)NC1CCC=C(c2c(OC)cnc3[nH]cc(-c4ccco4)c23)C1 (stereo not drawn) [Compound 17, N-(3-(3-(Furan-2-yl)-5-methoxy-1H-pyrrolo[2,3-b]pyridin-4-yl)cyclohex-3-en-1-yl)acrylamide]",0.86,170,< 0.3
"C=CC(=O)NC1CCC=C(c2c(-c3cnn(C)c3)cnc3[nH]cc(-c4cccnc4)c23)C1 (stereo not drawn) [Compound 19, N-(3-(5-(1-Methyl-1H-pyrazolo-4-yl)-3-(pyridin-3-yl)-1H-pyrrolo[2,3-b]pyridin-4-yl)cyclohex-3-en-1-yl)acrylamide]",1,280,0.51
"C=CC(=O)NC1CCC=C(c2ccnc3[nH]cc(C4=CCCCC4)c23)C1 (stereo not drawn) [Compound 30, N-(3-(3-(cyclohex-1-en-1-yl)-1H-pyrrolo[2,3-b]-pyridin-4-yl)cyclohex-3-en-1-yl)acrylamide]",3.2,1400,0.48
"C=CC(=O)NC1CCC=C(c2ccnc3[nH]cc(C4=CCOCC4)c23)C1 (stereo not drawn) [Compound 31, N-(3-(3-(3,6-Dihydro-2H-pyran-4-yl)-1H-pyrrolo[2,3-b]pyridin-4-yl)cyclohex-3-en-1-yl)acrylamide]",7.7,3000,0.71
"C=CC(=O)NC1CCC=C(c2ccnc3[nH]cc(C4=CC(=O)CCC4)c23)C1 (stereo not drawn) [Compound 32, N-(3-(3-(3-Oxocyclohex-1-en-1-yl)-1H-pyrrolo[2,3-b]pyridin-4-yl)cyclohex-3-en-1-yl)acrylamide]",> 10,3000,0.72
"C=CC(=O)NC1CCC=C(c2ccnc3[nH]cc(C4=CCCC4)c23)C1 (stereo not drawn) [Compound 33, N-(3-(3-(Cyclocyclopent-1-en-1-yl)-1H-pyrrolo[2,3-b]pyridin-4-yl)cyclohex-3-en-1-yl)acrylamide]",3.6,1400,0.6
"C=CC(=O)NC1CCC=C(c2ccnc3[nH]cc(-c4cccnc4F)c23)C1 (stereo not drawn) [Compound 38, N-(3-(3-(2-Fluoropyridin-3-yl)-1H-pyrrolo[2,3-b]pyridin-4-yl)cyclohex-3-en-1-yl)acrylamide]",5.8,2500,0.67
"C=CC(=O)NC1CCC=C(c2ccnc3[nH]cc(-c4ccc(N)nc4)c23)C1 (stereo not drawn) [Compound 39, N-(3-(3-(6-Aminopyridin-3-yl)-1H-pyrrolo[2,3-b]pyridin-4-yl)cyclohex-3-en-1-yl)acrylamide]",> 10,4800,0.83
"C=CC(=O)NC1CCC=C(c2ccnc3[nH]cc(-c4ccc[n+]([O-])c4)c23)C1 (stereo not drawn) [Compound 43, 3-(4-(5-Acrylamidecyclohex-1-en-1-yl)-1H-pyrrolo[2,3-b]pyridin-3-yl)pyridine 1-oxide]",> 10,9100,0.93
"C=CC(=O)NC1CCC=C(c2c(C#N)cnc3[nH]cc(-c4ccco4)c23)C1 (stereo not drawn) [Compound 45, N-(3-(5-Cyano-3-(furan-2-yl)-1H-pyrrolo[2,3-b]pyridin-4-yl)cyclohex-3-en-1-yl)acrylamide]",1.6,440,0.34
"C=CC(=O)NC1CCC=C(c2ccnc3[nH]cc(-c4nnc(C)o4)c23)C1 (stereo not drawn) [Compound 50, N-(3-(3-(5-Methyl-1,3,4-oxadiazol-2-yl)-1H-pyrrolo[2,3-b]pyridin-4-yl)cyclohex-3-en-1-yl)acrylamide]",3.8,920,0.62
